Test results as given in patent publication US11324767B2, “Drug combination treatments using bone-targeting therapeutics for bone and bone-related disease” (MBC Pharma, Inc., priority 2017, dated 2022).
Read-outs that look alike come from different tables or passages of the source.

Legend:
[1] = tolerability in mice (weight loss, nephrotoxicity)
Description: (§1) 143B-luc cells were then implanted into nude mice via intratibial injection, creating an orthotopic model for OS. The presence and growth of tumors was confirmed with in vivo imaging (Xenogen). Mice (N=8/treatment group) were then treated with 60 mg/kg GEM twice weekly and 15 mg/kg DTX once weekly, alone or in combination (15 mg/kg DTX with 20, 40 or 60 mg/kg GEM) and monitored for weight loss and tumor growth.
(§2) Tolerability for IB and GEM-IB was tested in a mouse model system. […] To ensure the health of mice throughout a longer study, doses were reduced to 6 mg/kg IB and equimolar doses of GEM-IB (14 mg/kg) and GEM (6 mg/kg) with 15 mg/kg DTX. Mice were implanted with the 143B-luc cells via intratibial injection and treatment started 4 days after implantation.
(§3) Mice were then treated with GEM-IB, GEM-IB with DTX, or the individual agents of GEM, DTX, or IB.

143B-luc = assay: cell culture treatment of human OS cell line 143B-luc (IC50, Bliss analysis)
Description: This was determined in culture with a human OS cell line—143B-luc (143B cells were transfected to express luciferase (luc) for use in a mouse model system).

143B-luc cells = assay: orthotopic OS model: Kaplan-Meier survival until euthanasia due to large tumor size; conditions: euthanized when largest tumor-laden leg diameter reached 10 mm above normal leg diameter (FIG. 4)
Description: Mice were euthanized when largest tumor-laden leg diameter reached 10 mm above normal leg diameter. […] Mice euthanized for weight loss are not indicated as deaths in this chart, and are indicated as tick marks on day euthanized.

[2] = MTD and tolerability of GEM-IB dosing regimens; type: in vivo
Excerpt: The MTD of the conjugate of Gemcitabine-to-Ibandronate is lower than that of MBC-1. Therefore, a conjugate of Gemcitabine-to-Ibandronate can be administered at or below 5/mg/kg/day via a 2-hour infusion for up to 5 consecutive days and Xofigo administered at or below its standard of care dosing regimen.

[3] = mouse, in vivo
Description: as §1, §2, §3

[4] = in vivo MicroCT of bone in OS mouse model; conditions: in vivo MicroCT 22 days after starting treatment; 6 mg/kg IB or 14 mg/kg GEM-IB
Description: To ensure the health of mice throughout a longer study, doses were reduced to 6 mg/kg IB and equimolar doses of GEM-IB (14 mg/kg) and GEM (6 mg/kg) with 15 mg/kg DTX. Mice were implanted with the 143B-luc cells via intratibial injection and treatment started 4 days after implantation.

[5] = tested on: prostate cancer induced bone disease; assay: in vivo model of prostate cancer induced bone disease
Description: (§4) MBC-11 was tested in recently completed phase I clinical trials in patients with CIBD.

[6] = clinically established MTD of MBC-11; type: in vivo, Human; conditions: 2-hour infusion for up to 5 consecutive days
Description: The current clinically established MTD of MBC-11 indicates the method should be used where MBC-11 is administered at or below 5/mg/kg/day via a 2-hour infusion for up to 5 consecutive days and Xofigo is administered at or below the standard of care dosing regimen.

bone lesions = assay: phase I clinical trials of MBC-11 in patients with CIBD, bone lesions imaged by 18F-FDG-PET/CT; conditions: 15 patients, after MBC-11 therapy
Description: as §4

[7] = 60 mg/kg GEM twice weekly alone, 15 mg/kg DTX once weekly alone, or 15 mg/kg DTX with 20 or 40 mg/kg GEM, N=8/group

SMILES: CC(=O)O[C@@]12CO[C@@H]1C[C@H](O)[C@@]1(C)C(=O)[C@H](O)C3=C(C)[C@@H](OC(=O)[C@H](O)[C@@H](NC(=O)OC(C)(C)C)c4ccccc4)C[C@@](O)([C@@H](OC(=O)c4ccccc4)[C@H]21)C3(C)C [DTX, docetaxel]
- weight loss [1, 7]: did not exhibit any weight loss
- IC50 (143B-luc; 143B-luc cells in culture, individual drug agent): 72 nM
- reduction of IC50 of DTX (143B-luc; in the presence of 1 nM GEM versus DTX alone): 600 fold
- IC50 (143B-luc; read-out: IC50 of DTX in the presence of GEM, 143B-luc cells in culture, in the presence of 1 nM GEM): 0.12 nM

SMILES: Nc1ccn([C@@H]2O[C@H](CO)[C@@H](O)C2(F)F)c(=O)n1 [GEM, Gemcitabine]
- weight loss [1, 7]: did not exhibit any weight loss
- IC50 (143B-luc; Homo sapiens): 9 nM

SMILES: CCCCCN(C)CCC(O)(P(=O)(O)O)P(=O)(O)OP(=O)(O)OC[C@H]1O[C@@H](n2ccc(N)nc2=O)C(F)(F)[C@@H]1O (stereo partly shown) [GEM-IB]
- day after treatment initiation from which mice were sacrificed (143B-luc cells): 28 days
- tolerability ([2]; Monday, Wednesday and Friday dosing for three weeks at twice the 6 mg/kg daily dose): well tolerated
- MTD ([2]; dosing for five sequential days): 6 mg/kg/day
- MTD compared with MBC-1 ([2]; in vivo): lower
- nephrotoxicity [3]: possible nephrotoxicity
- tolerability [3]: well tolerated
- bone volume density [4]: high
- trabecular number [4]: high
- activity compared to GEM-etidronate (GEM-ET), MBC-11 and cytarabine-IB ([5]; in vivo): more active
- metastases after treatment ([5]; in vivo): significantly reduced
- survival ([5]; study not designed for a survival endpoint): improved survival trend

SMILES: CCCCCN(C)CCC(O)(P(=O)(O)O)P(=O)(O)O [IB, ibandronate]
- weight loss ([1]; IB 12 mg/kg twice weekly): only minimal weight loss
- nephrotoxicity ([1]; at higher levels): possible nephrotoxicity
- tolerability ([1]; at lower doses): well tolerated
- bone volume density [4]: high
- trabecular number [4]: high

SMILES: CC(O)(P(=O)(O)O)P(=O)(O)OP(=O)(O)OC[C@H]1O[C@@H](n2ccc(N)nc2=O)[C@@H](O)[C@@H]1O (stereo partly shown) [MBC-11]
- dose indicated by the clinically established MTD [6]: up to 5 /mg/kg/day
- bone lesions with a significant reduction (>25%) in glucose avidity (bone lesions; 206 bone lesions imaged (18F-FDG-PET/CT)): 111 lesions
- bone lesions significantly reduced in activity (bone lesions; 206 bone lesions imaged): 53.8%
